The record followed here is patent publication US10285939B2, “Means and methods for ocular drug delivery” (Eberhard Karls Universität Tübingen Medizinische Fakultät, priority 2013, dated 2019).

The nature of data set [1]: In-vitro adhesion to porcine eye. The note with it: NPs 20 μM, 15 minutes incubation, thoroughly washed in PBS. Here is the method: In order to further gauge the adherence of different nanoparticles (NPs) to the eye surface, porcine eyes were obtained from the local slaughterhouse and exposed to the different NPs. The NPs were prepared as described in example 1, section 1.2, at a concentration of 20 μM. The porcine eye was transferred to a 6-well plate and 2 rings of different diameter were placed on top of the cornea to prevent spillage of the NP solution. Subsequently, 50 μl of NP solution was put on top of the cornea and incubated for 15 minutes. Afterwards, the rings were removed using tweezers and the eyes were thoroughly washed in PBS (PAA, Germany). The eye was divided into two along the visual axis. Of the two halves one was stored in formaldehyde, whereas the other was frozen in Tissue Tek, cut on a cryostat, stained with DAPI and photographed as described in example 1. To determine the binding capabilities of the NPs, they were exposed to porcine eyes obtained from the local slaughterhouse. For comparison the NPs from example 1 were included in the experiments. After 15 minutes of incubation with the NPs, the porcine eye was thoroughly washed in PBS buffer and frozen in tissue tek. The adhesion to the cornea was evaluated by fluorescence microscopy (See FIG. 8).

The test system of data set [2] is corneal epithelium of living rats. In words: Adhesion of fluorescently labelled DNA amphiphile NP eye drops to the cornea of living rats. The format is in vivo, rat. The following applies: for Number of NP positive eyes out of total number eyes: 20 μM, conscious rats; for adhesion to the cornea (fluorescence images of cryo sections): in-vivo rat eye. Here is the method: Adult Lister Hooded Rats were obtained from Harlan Winkelmann, Germany. For the eye drop applications the conscious rats were very shortly fixated and a drop was administered to the eye using a single drop device as in medical applications. Blinking of the eyes was not hindered during drop application or afterwards. After the designated incubation time-point the rat were sacrificed with carbon dioxide inhalation.
After the predetermined time point the animal was sacrificed and the eyes were enucleated and frozen in Tissue-Tek O.C.T. (Sakura Finetek, Germany) in liquid nitrogen. Frozen sections were longitudinally cut (12 μm) on a cryostat (Leica CM 1900, Germany), thaw-mounted onto glass slides (Superfrost plus, R. Langenbrinck Labor- and Medizintechnik, Germany) and stored at −30° C. until further use. Further processing was performed using standard procedures. Briefly, for visualisation sections were fixed with methanol and to stain nuclei, sections were further incubated in a solution containing 0.2 μg/ml 4′,6-diamidino-2-phenylindol (DAPI) for 1 min. Stained sections were embedded in FluorSave (Calbiochem, Germany) and imaged using a fluorescent microscope (Axioplan2 Imaging®, Zeiss, Germany with the Openlab software, Improvision, Germany).^33 Animals were treated according to the Principles of laboratory animal care (NIH publication No. 85-23, revised 1985), the OPRR Public Health Service Policy on the Human Care and Use of Laboratory Animals (revised 1986) and the German animal protection law (Research permission AK3/11 to S.S.)
The eye drops containing the different fluorescently labelled DNA amphiphiles at a concentration of 20 μM were administered to conscious rats using a single drop of 30 μL and 30 min, 2 or 24 h after application the animals were sacrificed. Cryo sections of the treated eyes were prepared and imaged using fluorescence microscopy. As controls, single stranded (ss) and double stranded (ds) DNA lacking the lipid-modified nucleotide were administered as eye drops in the same fashion. Selection of the best carrier was performed by comparing the number of DNA amphiphile stained eyes to the total number of eyes to which eye drops were given and, in the case of an equal amount of positives, by visual comparison of the cryo sections (see Table 3).
After selection of U4T-12 as the best carrier, the adherence time on the cornea was evaluated (see FIG. 3). The NPs of U4T-12 are already observed 5 min after application of the eye drops, thus showing a fast adherence to the cornea. Then the NPs are present for a period of at least four hours because distinct green fluorescence of the carrier was clearly visible. […] After these successful proof-of-concept experiments we applied U4T-12 aptamer-functionalized carriers loaded with neomycinB or kanamycinB because these two antibiotics are currently used for treatment of ophthalmic indications. For localization of the drug loaded carrier the aptamer was functionalized with a red fluorescent dye at the 5′ end. The eye drops were administered as described earlier and the adherence to the cornea was studied 5, 15 and 30 minutes after application (see FIG. 4).

[3] abbreviates: 30 min after a single 30 μL eye drop.
Setting [4] is: 2 hours after a single 30 μL eye drop.
The mark [5] stands for this setting: 24 hours after a single 30 μL eye drop.
Setting [6] is: rat, eye drops, green fluorescence of the carrier.

[C12U] = 2'-deoxyuridine carrying a dodecyne (lipid) modification Where only a bound is given, the exact number is not on record here.

“U2M-12: amphiphile with sequence TCCUUGGCGCAG, lipid modified nucleotides situated inside the chain (lipid-modified nucleotides inside the chain, which positions not given here, further chemistry not given here)”: the “adherence to the porcine cornea (fluorescence microscopy)” value in data set [1] is recorded as “hardly any adherence”.
For “U2T-12: lipid modified oligonucleotide UUTGGCGGATTC (5′→3′), U = dodecyne modified deoxyuridine; forms micellar NPs (DNA, [C12U] at 1, 2, backbone and methylation of C not given here; forms micellar nanoparticles)”, the results for the “Number of NP positive eyes out of total number eyes” value (“Number” below) in data set [2] (setting [3]), in data set [2] (setting [4]) and in data set [2] (setting [5]) were 2/4, 0/4 and 0/4, respectively. Moreover, in data set [2] (eye drops), the “adhesion to the cornea (fluorescence images of cryo sections)” value (“adhesion to the cornea” below) is “adhere significantly less”.
On to “U4T-12: lipid modified oligonucleotide UUUUGCGGATTC (5′→3′), U = dodecyne modified deoxyuridine; forms micellar NPs (DNA, [C12U] at 1, 2, 3, 4, backbone and methylation of C not given here; forms micellar nanoparticles)”, for which the “Number” value in data set [2] (setting [3]) was 6/6; in data set [2] (setting [4]) it was 4/6; in data set [2] (setting [5]) it was 0/4. Besides, the “adhesion to the cornea” value in data set [2] (eye drops) is on record as “best attachment”. For the same substance, in data set [2] (setting [6]), the “adherence time on the cornea (period NPs are present)” value is “at least four”. Moreover, in data set [2] (setting [6]), the “time after application of the eye drops at which NPs are already observed on the cornea” value was at most 5 min. Besides, the “adherence to the porcine cornea (fluorescence microscopy)” value in data set [1] is given as “good adherence”.
“U4T-18: lipid modified oligonucleotide UUUUGCGGATTCGTCTGC (5′→3′), U = dodecyne modified deoxyuridine (DNA, [C12U] at 1, 2, 3, 4, backbone and methylation of C not given here)”: the “Number” value in data set [2] (setting [3]) is reported as 4/5; in data set [2] (setting [4]) it was 0/4; in data set [2] (setting [5]), 0/4.
Consider “U6T-12: lipid modified oligonucleotide UUUUUUGGATTC (5′→3′), U = dodecyne modified deoxyuridine (DNA, [C12U] at 1, 2, 3, 4, 5, 6, backbone and methylation of C not given here)”, for which the figures for the “Number” value in data set [2] (setting [3]), in data set [2] (setting [4]) and in data set [2] (setting [5]) were 3/3, 1/4 and 0/1, respectively. Further, the “adhesion to the cornea” value in data set [2] (eye drops) is “adhere significantly less”.
Regarding “U6T-20: lipid modified oligonucleotide UUUUUUGCGGATTCGTCTGC (5′→3′), U = dodecyne modified deoxyuridine (DNA, [C12U] at 1, 2, 3, 4, 5, 6, backbone and methylation of C not given here)”, the entries for the “Number” value in data set [2] (setting [3]), in data set [2] (setting [4]) and in data set [2] (setting [5]) were 2/2, 1/3 and 0/3, respectively.
